The target in experiment [1] is T1, Hb-PAA-1k-6 nanocapsule (bovine met-hemoglobin conjugated to polyacrylic acid, synthesized at pH 6) (Bos taurus, UniProt P01966+P02070).
T1 construct: peroxidase-like activity with guaiacol/H2O2
As to the kind of experiment: Peroxidase-like activity, Michaelis-Menten kinetics (guaiacol oxidation by H2O2, 470 nm), Hb-PAA-1k-6. Conditions: 1 μM Hb, 2.5 mM guaiacol, 1 mM H2O2. Format: biochemical. The protocol: (§1) FIG. 5 provides Lineweaver-Burk plots for the peroxidase-like activity of Hb-PAA conjugates. A) Peroxidase-like activity for the 1 μM of Hb-PAA synthesized at pH 6.0. B) Peroxidase-like activity for 1 μM Hb-PAA synthesized at pH 7.0. All experiments were done in the presence of 1 μM Hb, 2.5 mM guaiacol and 1 mM H2O2.
(§2) Polyacrylic acid (PAA) (8000 Da) was purchased from sigma chemical Co (St. Louis, Mo.). The PAA stock solution was made by mixing 1.32 gm of 45% (w/w) PAA in 3 ml of 20 mM Na2HPO4 buffer, pH 7.2, and was further used for synthesis. Met-hemoglobin (Hb, bovine) was purchased from Sigma. Protein solutions were prepared in the respective buffers used for synthesis and the concentrations determined from the Soret absorbance of Hb using extinction co-efficient 303,956 M^−1 cm^−1 at 407 nm. […]
(§3) Hb activity was monitored by the addition of guaiacol (substrate) and hydrogen peroxide (oxidant), and formation of the colored product has been monitored by its absorption at 470 nm as a function of time (FIG. 4). […]
(§4) Hb activity was followed by literature method, with minor modifications. Product absorbance at 470 nm was monitored as a function time of after the addition of H2O2 (1 mM) to Hb (5 μM) and o-methoxyphenol (2.5 mM). Initial rates and Michaelis-Menten parameters were calculated from the kinetic data by following standard protocols. […]

Experiment [2] addresses T2, Hb-PAA-1k-7 nanocapsule (bovine met-hemoglobin conjugated to polyacrylic acid, synthesized at pH 7) (Bos taurus, UniProt P01966+P02070).
T2 construct: peroxidase-like activity with guaiacol/H2O2
Kind of experiment: Peroxidase-like activity, Michaelis-Menten kinetics (guaiacol oxidation by H2O2, 470 nm), Hb-PAA-1k-7. Conditions: 1 μM Hb, 2.5 mM guaiacol, 1 mM H2O2. The format is biochemical. As for the experimental part: as §1, §2, §3, §4

T2 sequence (P01966 whole entry): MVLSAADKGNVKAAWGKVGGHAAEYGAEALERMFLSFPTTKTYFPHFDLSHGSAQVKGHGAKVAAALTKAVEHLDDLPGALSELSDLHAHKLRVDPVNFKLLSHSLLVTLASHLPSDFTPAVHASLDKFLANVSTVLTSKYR
T2 sequence (P02070 whole entry): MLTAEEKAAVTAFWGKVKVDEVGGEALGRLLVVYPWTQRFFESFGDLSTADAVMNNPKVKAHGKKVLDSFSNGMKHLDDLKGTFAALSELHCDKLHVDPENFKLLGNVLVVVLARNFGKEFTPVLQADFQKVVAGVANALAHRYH
T1 sequence (P01966 whole entry): as the sequence (P01966 whole entry) above
T1 sequence (P02070 whole entry): as the sequence (P02070 whole entry) above

For the compound `COc1ccccc1O` [guaiacol, o-methoxyphenol], the Vmax – broadly, the top rate of the reaction or transport when substrate is in excess – was 0.0028 mM/s in experiment [1] and 0.0025 mM/s in experiment [2].

The values are drawn from patent publication US20130196406A1, “NOVEL PROTEIN-POLYMER NANOCAPSULES” (University of Connecticut, priority 2012, published 2013).
